{"source": "paper PMC3985517", "about": "“Abscisic acid dynamics in roots detected with genetically encoded FRET sensors” (eLife, 2014)", "key": {"Arabidopsis seeds": {"tested_on": "Arabidopsis seeds", "assay": "Seed germination on ABA plates", "assay_type": "in vivo", "details": "all genotypes; plates with 20 µM (±)-ABA", "experimental": "(§1) For ABA treatments, 20 mM (±)-ABA was prepared freshly as a stock solution in 50 mM NaOH. Mock treatment plates were made using NaOH to keep pH consistent. Root tips were marked at the time of transfer and images were acquired after 4 days growth on vertical treatment plates. Root growth after transfer were measured using FIJI (http://fiji.sc/). Each experiment included ∼15 roots per genotype and was repeated three independent times with similar results. ABA sensitivity of seed germination rate of Arabidopsis seeds was assayed after sowing on ½ × MS agar medium plates supplemented with 0, 2 or 20 µM (±)-ABA. […] Plates were stratified for 2 days at +4°C after which they were transferred to a growth chamber with standard long day conditions (16 hr high light, 22°C, 70% RH). Seeds were considered germinated at radicle emergence and germination rate was assayed 9 days post sowing in three independent experiments of 100–200 seeds per genotype. The abi1-2, hab1-1, pp2ca-1 triple mutant line was a gift from Pedro Rodriguez ([Rubio et al., 2009])."}, "Arabidopsis seedlings": {"tested_on": "Arabidopsis seedlings", "assay": "Primary root growth of ABACUS1 plant lines on ABA plates", "assay_type": "in vivo", "experimental": "as §1"}, "Arabidopsis roots [1]": {"tested_on": "Arabidopsis roots", "assay": "ABACUS1 responses in roots perfused with ABA in the RootChip16", "assay_type": "in vivo", "experimental": "The RootChip16 device was used as described in detail previously for the RootChip ([Grossmann et al., 2011], [2012]). Briefly, the device was sterilized by UV light exposure, immersed in liquid growth media (¼ × MS salts, 1.28 mM MES pH 5.7 supplemented with B vitamins at final concentrations of niacin 2.3 µM, thiamine 1.5 µM, pyridoxin 1.2 µM and myo-inositol 0.3 µM), and air in the root observation chambers was removed by applying suction at the solution outlets using a microliter pipette. 5-day old Arabidopsis seedlings, germinated on 5 mm long cut 10 µl pipette tips filled with solidified growth medium (½ × MS salts, 1% Agar, 2.56 mM MES pH 5.7 supplemented with B vitamins at final concentrations of niacin 4.6 µM, thiamine 3.0 µM, pyridoxin 2.4 µM and myo-inositol 0.6 µM, were transferred onto the chip by plugging the tips into the root inlets. The chip was incubated for 24 hr under standard long-day growth conditions (16 hr high light, 22°C, 70% RH) to allow roots to grow into the observation chambers. Before imaging, the RootChip16 was inserted from below into the central aperture of the carrier and fixed with tape. Pressure lines for control over micromechanical valves and flow lines for perfusion of solutions were connected. To actuate the push-up valves on the chip, a closing pressure of 15 p.s.i (1.03 bar) was applied to the water filled control lines. […]"}, "[2]": {"set-up": "method as in Kaiser and Hartung, 1981", "details": "ref Kaiser and Hartung, 1981; cited from earlier work"}, "Arabidopsis roots [3]": {"tested_on": "Arabidopsis roots", "set-up": "method as in Grossmann et al., 2011", "details": "ref Grossmann et al., 2011; cited from earlier work"}, "ABACUS1-2µ": {"tested_on": "ABACUS1-2µ", "assay_type": "biochemical, Arabidopsis", "details": "Figure 3B-E"}}, "note": "Like-named read-outs stand apart in the source and are kept apart here."}
{"smiles": "CC1=CC(=O)CC(C)(C)C1(O)/C=C/C(C)=C\\C(=O)O", "note": "(racemic) [(±)-ABA]", "values": [{"measurement": "germination", "setting": "Arabidopsis seeds", "result": 0, "unit": "%"}, {"measurement": "root growth of ABACUS1-2µ sensor lines", "setting": "Arabidopsis seedlings; 20 µM exogenous (±)-ABA", "result": "almost completely inhibited"}, {"measurement": "root growth of ABACUS1-80µ plants", "setting": "Arabidopsis seedlings; 100 µM exogenous (±)-ABA", "result": "strongly inhibited"}]}
{"smiles": "CC1=CC(=O)CC(C)(C)[C@@]1(O)/C=C/C(C)=C\\C(=O)O", "note": "[ABA, abscisic acid]", "values": [{"measurement": "accumulation rate of a non-pre-exposed root relative to a root pre-exposed to ABA", "setting": "Arabidopsis roots [1]; first ABA pulse, 5 µM (±)-ABA, ABACUS1-2µ roots", "result": "nearly twice"}, {"measurement": "time to saturation of sensor responses", "setting": "Arabidopsis roots [1]; typical experiment, roots", "result": "~15", "unit": "min"}, {"measurement": "pKa", "setting": "[2]", "result": 4.7}]}
{"smiles": "OC[C@H]1OC(O)[C@H](O)[C@@H](O)[C@@H]1O", "note": "(stereo partly drawn) [Glucose, glucose]", "values": [{"measurement": "time to saturation of sensor responses", "setting": "Arabidopsis roots [3]", "result": "less than 1 min"}]}
{"smiles": "O=S(=O)(NCc1ccccn1)c1ccc(Br)c2ccccc12", "note": "[Pyrabactin, pyrabactin]", "values": [{"measurement": "increase in energy transfer of ABACUS1 (positive ratio change), in words", "setting": "ABACUS1-2µ", "result": "induced"}]}
{"smiles": "O=c1[nH]c(=O)c2nc[nH]c2[nH]1", "note": "[Xanthine, xanthine]", "values": [{"measurement": "increase in energy transfer of ABACUS1 (positive ratio change), in words", "setting": "ABACUS1-2µ", "result": "did not occur"}]}
